In test [1] the target is T1, Matrix metalloproteinase-9 (Homo sapiens, UniProt P14780). As to the kind of experiment: Inhibition of human MMP9 (107 to 707 residues) expressed in Escherichia coli BL21(DE3) cells.
In test [2] the target is T1, Matrix metalloproteinase-9. Description: Inhibition of human MMP9 catalytic domain using Mca-PLGL-Dpa-AR-NH2 as substrate by fluorescence method.
The target in test [3] is 72 kDa type IV collagenase (Homo sapiens, UniProt P08253). Description: Inhibition of recombinant human MMP2 using fluorescently conjugated gelatin as substrate.
72 kDa type IV collagenase, sequence (P08253 whole entry): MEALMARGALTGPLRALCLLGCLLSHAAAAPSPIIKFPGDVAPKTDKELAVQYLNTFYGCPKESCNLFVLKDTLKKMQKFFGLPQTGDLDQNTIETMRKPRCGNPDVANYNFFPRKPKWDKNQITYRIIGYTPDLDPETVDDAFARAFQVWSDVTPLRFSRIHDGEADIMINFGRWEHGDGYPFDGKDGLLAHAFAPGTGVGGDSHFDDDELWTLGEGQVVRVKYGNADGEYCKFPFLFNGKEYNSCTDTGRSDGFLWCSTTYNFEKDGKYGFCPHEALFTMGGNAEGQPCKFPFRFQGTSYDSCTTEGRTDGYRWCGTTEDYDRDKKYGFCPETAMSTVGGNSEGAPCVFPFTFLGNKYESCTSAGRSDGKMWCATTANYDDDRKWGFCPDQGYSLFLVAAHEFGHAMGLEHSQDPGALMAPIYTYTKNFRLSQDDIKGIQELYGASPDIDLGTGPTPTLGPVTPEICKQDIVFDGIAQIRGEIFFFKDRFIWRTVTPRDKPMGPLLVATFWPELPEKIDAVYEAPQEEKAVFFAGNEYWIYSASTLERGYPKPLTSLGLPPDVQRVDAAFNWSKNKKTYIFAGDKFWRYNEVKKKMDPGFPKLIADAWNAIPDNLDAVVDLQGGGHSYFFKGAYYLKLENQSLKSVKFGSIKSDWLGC

T1 sequence (P14780 whole entry, the tested form may be a part): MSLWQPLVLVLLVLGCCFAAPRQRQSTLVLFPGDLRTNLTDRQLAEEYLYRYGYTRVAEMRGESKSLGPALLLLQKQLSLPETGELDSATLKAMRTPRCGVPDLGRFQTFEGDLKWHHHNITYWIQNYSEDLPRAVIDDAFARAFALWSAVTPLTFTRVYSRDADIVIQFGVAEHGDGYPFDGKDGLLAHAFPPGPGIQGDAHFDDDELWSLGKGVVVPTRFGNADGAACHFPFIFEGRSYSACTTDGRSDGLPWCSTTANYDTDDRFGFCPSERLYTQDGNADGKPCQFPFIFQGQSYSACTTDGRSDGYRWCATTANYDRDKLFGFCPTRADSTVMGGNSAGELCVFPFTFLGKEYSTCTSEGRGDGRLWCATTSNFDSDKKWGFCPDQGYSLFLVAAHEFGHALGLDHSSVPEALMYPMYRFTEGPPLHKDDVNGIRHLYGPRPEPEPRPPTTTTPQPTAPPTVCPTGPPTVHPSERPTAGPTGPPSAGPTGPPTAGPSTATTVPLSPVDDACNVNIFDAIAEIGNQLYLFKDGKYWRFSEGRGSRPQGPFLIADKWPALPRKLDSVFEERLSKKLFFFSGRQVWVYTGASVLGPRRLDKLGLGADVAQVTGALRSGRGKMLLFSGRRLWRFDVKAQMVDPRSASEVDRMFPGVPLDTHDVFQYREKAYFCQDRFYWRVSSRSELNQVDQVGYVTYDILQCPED

As to `O=C(/C=C/c1ccc(O)c(O)c1)Oc1ccc2c(c1)C(=O)OCC2`, the half-maximal inhibitory concentration (IC50) in test [1] worked out at 1.39 µM. Compound `COc1ccc(/C=C/C(=O)O[C@H](C(=O)O)[C@](O)(Cc2ccc(O)c(O)c2)C(=O)O)cc1O` [CIMICIFUGIC ACID B] gave an IC50 in test [2] of 13.4 µM. With `CCCCC/C=C/CCCCCCCc1cccc(O)c1C(=O)O`, the half-maximal inhibitory concentration (IC50) in test [3] is 6.5 µM. Same read-out and setting: then `CCCCCC/C=C\CCCCCCCc1cccc(O)c1C(=O)O` [GINGKOLIC ACID], with 6.3 µM.

As usually defined, the IC50 is the point on the concentration scale where inhibition reaches its midpoint.

The values are drawn from ChEMBL document CHEMBL4354785, “Recent insights into natural product inhibitors of matrix metalloproteinases” (Medchemcomm, 2019).
